Assay results reported in patent US10292981B2, “Oxazoline and isoxazoline derivatives as CRAC modulators” (LUPIN LIMITED, priority 2010, dated 2019).

The molecules below were run on IL-2 secretion, Jurkat T cells (assay: Inhibition of IL-2 secretion (PHA-stimulated Jurkat T cells, ELISA)). Settings: Homo sapiens; Jurkat T cells stimulated with PHA, 20 to 24 hours.
Type: cell-based
Method: The CRAC channel modulatory activity of the compounds were thus evaluated by measuring the secretion of IL-2 by antigen stimulated T-cells in vitro. Alternatively, such activity can also be evaluated by assay methods known to one skilled in the art.
Inhibition of IL-2 secretion: Jurkat T cells were seeded at a density of 0.5 to 1 million cells per well in RPMI medium. Test compounds from this invention were added to the cells at different concentrations. This was followed by the addition of PHA, a T cell mitogen after 10 minutes.
The cells were then incubated for 20 to 24 hours in a CO2 incubator at 37° C. After incubation with the compounds, cells were centrifuged, collected the supernatant and processed for ELISA to quantitate the amount of IL-2 secreted. A commercial ELISA kit (R&D Systems, Inc. Minneapolis, Minn., USA) was used to estimate the IL-2 concentrations. Amount of IL-2 secreted by cells stimulated with PHA was considered as a 100% maximal signal and the decrease in amount of IL-2 secreted by cells treated with the test compounds was expressed as percent inhibition of the maximal signal. The dose response data was analyzed using 4-parametric sigmoidal dose response (variable slope) curve-fit.
An IC50 of 100 to 1000 nM was found for `Cc1c(-c2cnc(NC(=O)C3CCc4ccccc4C3)cn2)cccc1-c1nn(C)c(=O)o1` (racemic) [Example 138, (R/S)-N-(5-(2-Methyl-3-(4-methyl-5-oxo-4,5-dihydro-1,3,4-oxadiazol-2-yl)phenyl)pyrazin-2-yl)-1,2,3,4-tetrahydronaphthalene-2-carboxamide] in this work. An IC50 of less than 100 nM was found for `Cc1ccc(C2=NOC(C)(C)C2=O)cc1-c1ccc(NC(=O)c2c(F)cccc2F)cc1` [Example 3] in this work. An IC50 of 100 to 1000 nM was found for `Cc1ccc(C2=NOC(C)(C)C2=O)cc1-c1ccc(NC(=O)c2c(F)cccc2F)nc1` [Example 4, N-(5-(5-(5,5-Dimethyl-4-oxo-4,5-dihydroisoxazol-3-yl)-2-methylphenyl)pyridin-2-yl)-2,6-difluorobenzamide] in this work. An IC50 of 100 to 1000 nM was found for `CCc1ccc(C2=NOC(C)(C)C2=O)cc1-c1ccc(NC(=O)c2c(F)cccc2F)cn1` [Example 7, N-(6-(5-(5,5-dimethyl-4-oxo-4,5-dihydroisoxazol-3-yl)-2-ethylphenyl)pyridin-3-yl)-2,6-difluorobenzamide] in this work. An IC50 of 100 to 1000 nM was found for `CC(C)c1ccc(C2=NOC(C)(C)C2=O)cc1-c1cnc(NC(=O)c2c(F)cccc2F)cn1` [Example 8, N-(5-(5-(5,5-dimethyl-4-oxo-4,5-dihydroisoxazol-3-yl)-2-isopropylphenyl)pyrazin-2-yl)-2,6-difluorobenzamide] in this work. An IC50 greater than 1000 nM was found for `CC1(C)ON=C(c2ccc(C(C)(C)C)c(-c3ccc(NC(=O)c4c(F)cccc4F)cc3)c2)C1=O` [Example 10, N-(2′-(tert-butyl)-5′-(5,5-dimethyl-4-oxo-4,5-dihydroisoxazol-3-yl)-[1,1′-biphenyl]-4-yl)-2,6-difluorobenzamide] in this work. An IC50 of 100 to 1000 nM was found for `CC1(C)ON=C(c2ccc(Cl)c(-c3ccc(NC(=O)c4c(F)cccc4F)cc3)c2)C1=O` [Example 11, N-(2′-chloro-5′-(5,5-dimethyl-4-oxo-4,5-dihydroisoxazol-3-yl)-[1,1′-biphenyl]-4-yl)-2,6-difluorobenzamide] in this work. An IC50 of less than 100 nM was found for `COc1ccc(C2=NOC(C)(C)C2=O)cc1-c1ccc(NC(=O)c2snnc2C)cc1` [Example 16, N-(5′-(5,5-Dimethyl-4-oxo-4,5-dihydroisoxazol-3-yl)-2′-methoxy-[1,1′-biphenyl]-4-yl)-4-methyl-1,2,3-thiadiazole-5-carboxamide] in this work. An IC50 greater than 1000 nM was found for `COc1ccc(C2=NOC(C)(C)C2=O)cc1-c1ccc(NC(=O)c2c(F)cccc2F)nc1` [Example 17, N-(5-(5-(5,5-dimethyl-4-oxo-4,5-dihydroisoxazol-3-yl)-2-methoxyphenyl)pyridin-2-yl)-2,6-difluorobenzamide] in this work. An IC50 of 100 to 1000 nM was found for `COc1ccc(C2=NOC(C)(C)C2=O)cc1-c1ccc(NC(=O)c2c(F)cccc2F)cn1` [Example 18, N-(6-(5-(5,5-dimethyl-4-oxo-4,5-dihydroisoxazol-3-yl)-2-methoxyphenyl)pyridin-3-yl)-2,6-difluorobenzamide] in this work. An IC50 of less than 100 nM was found for `CC(=O)Nc1ccc(C2=NOC(C)(C)C2=O)cc1-c1ccc(NC(=O)c2c(F)cccc2F)cc1` [Example 19, N-(2′-acetamido-5′-(5,5-dimethyl-4-oxo-4,5-dihydroisoxazol-3-yl)-[1,1′-biphenyl]-4-yl)-2,6-difluorobenzamide] in this work. An IC50 of 100 to 1000 nM was found for `COC1C(c2ccc(C)c(-c3cnc(NC(=O)c4c(F)cccc4F)cn3)c2)=NOC1(C)C` (stereo not drawn) [Example 23, 2,6-difluoro-N-(5-(5-(4-methoxy-5,5-dimethyl-4,5-dihydroisoxazol-3-yl)-2-methylphenyl)pyrazin-2-yl)benzamide] in this work. An IC50 of 100 to 1000 nM was found for `COC1C(c2ccc(C)c(-c3ccc(NC(=O)c4c(F)cccc4F)cc3)c2)=NOC1(C)C` (stereo not drawn) [Example 24, 2,6-Difluoro-N-(5′-(4-methoxy-5,5-dimethyl-4,5-dihydroisoxazol-3-yl)-2′-methyl-[1,1′-biphenyl]-4-yl)benzamide] in this work. An IC50 of 100 to 1000 nM was found for `COc1c(C2=NOC(C)(C)C2=O)cccc1-c1ccc(NC(=O)c2c(F)cccc2F)cc1` [Example 31, N-(3′-(5,5-Dimethyl-4-oxo-4,5-dihydroisoxazol-3-yl)-2′-methoxy-[1,1′-bipheny;]-4-yl)-2,6-difluorobenzamide] in this work. An IC50 of less than 100 nM was found for `Cc1ccc(-c2nn(C)c(=O)o2)cc1-c1ccc(NC(=O)c2c(F)cccc2F)cc1` [Example 33, 2,6-Difluoro-N-(2′-methyl-5′-(4-methyl-5-oxo-4,5-dihydro-1,3,4-oxadiazol-2-yl)-[1,1′-biphenyl]-4-yl)benzamide] in this work. An IC50 of less than 100 nM was found for `CCn1nc(-c2ccc(C)c(-c3ccc(NC(=O)c4c(F)cccc4F)cc3)c2)oc1=O` [Example 34, N-(5′-(4-Ethyl-5-oxo-4,5-dihydro-1,3,4-oxadiazol-2-yl)-2′-methyl-[1,1′-biphenyl]-4-yl)-2,6-difluorobenzamide] in this work. An IC50 of less than 100 nM was found for `COc1ccc(-c2nn(C)c(=O)o2)cc1-c1ccc(NC(=O)c2c(F)cccc2F)cc1` [Example 40, 2,6-Difluoro-N-(2′-methoxy-5′-(4-methyl-5-oxo-4,5-dihydro-1,3,4-oxadiazol-2-yl)[1,1′-biphenyl]-4-yl)benzamide] in this work. An IC50 of less than 100 nM was found for `Cn1nc(-c2ccc(Cl)c(-c3ccc(NC(=O)c4c(F)cccc4F)cc3)c2)oc1=O` [Example 46, N-(2′-Chloro-5′-(4-methyl-5-oxo-4,5-dihydro-1,3,4-oxadiazol-2-yl)-[1,1′-biphenyl]-4-yl)-2,6-difluorobenzamide] in this work. An IC50 of 100 to 1000 nM was found for `Cc1ccc(C2=NOC(C)(C)C2)cc1-c1cnc(NC(=O)c2c(F)cccc2F)cn1` [Example 53] in this work. An IC50 of 100 to 1000 nM was found for `Cc1ccc(C2=NOC3(CCCCC3)C2=O)cc1-c1ccc(NC(=O)c2c(F)cccc2F)cc1` [Example 58, 2,6-Difluoro-N-(2′-methyl-5′-(4-oxo-1-oxa-2-azaspiro[4.5]dec-2-en-3-yl)-[1,1′-biphenyl]-4-yl)benzamide] in this work. An IC50 of 100 to 1000 nM was found for `Cc1ccc(C2=NC(C)(C)CO2)cc1-c1ccc(NC(=O)c2c(F)cccc2F)cc1` [Example 61, N-(5′-(4,4-dimethyl-4,5-dihydrooxazol-2-yl)-2′-methyl-[1,1′-biphenyl]-4-yl)-2,6-difluorobenzamide] in this work. An IC50 of 100 to 1000 nM was found for `Cc1ccc(C2=NOC(C)(C)C2=O)cc1-c1cnc(NC(=O)c2cc(F)ccc2F)cn1` [Example 67, N-(5-(5-(5,5-Dimethyl-4-oxo-4,5-dihydroisoxazol-3-yl)-2-methylphenyl)pyrazine-2-yl)-2,5-difluorobenzamide] in this work. An IC50 greater than 1000 nM was found for `Cc1ccc(C2=NOC(C)(C)C2=O)cc1-c1cnc(NC(=O)c2ccc(F)cc2)cn1` [Example 69, N-(5-(5-(5,5-Dimethyl-4-oxo-4,5-dihydroisoxazol-3-yl)-2-methylphenyl)pyrazine-2-yl)-4-fluorobenzamide] in this work. An IC50 of 100 to 1000 nM was found for `Cc1ccc(C2=NOC(C)(C)C2=O)cc1-c1cnc(NC(=O)c2ccccc2Cl)cn1` [Example 78, 2-Chloro-N-(5-(5-(5,5-dimethyl-4-oxo-4,5-dihydroisoxazol-3-yl)-2-methylphenyl)pyrazin-2-yl)benzamide] in this work. An IC50 of less than 100 nM was found for `Cc1ccc(C2=NOC(C)(C)C2=O)cc1-c1cnc(NC(=O)c2c(F)cccc2Cl)cn1` [Example 80, 2-Chloro-N-(5-(5-(5,5-dimethyl-4-oxo-4,5-dihydroisoxazol-3-yl)-2-methylphenyl)pyrazin-2-yl)-6-fluorobenzamide] in this work. An IC50 of less than 100 nM was found for `Cc1ccc(-c2nn(C)c(=O)o2)cc1-c1cnc(NC(=O)c2c(F)cccc2F)cn1` [Example 87, 2,6-Difluoro-N-(5-(2-methyl-5-(4-methyl-5-oxo-4,5-dihydro-1,3,4-oxadiazol-2-yl)phenyl)pyrazin-2-yl)benzamide] in this work. An IC50 of less than 100 nM was found for `COc1ccc(-c2nn(C)c(=O)o2)cc1-c1cnc(NC(=O)c2c(F)cccc2F)cn1` [Example 93, 2,6-Difluoro-N-(5-(2-methoxy-5-(4-methyl-5-oxo-4,5-dihydro-1,3,4-oxadiazol-2-yl)phenyl)pyrazin-2-yl)benzamide] in this work. An IC50 of 100 to 1000 nM was found for `Cc1ccc(C2=NOC(C)(C)C2=O)cc1-c1cnc(NC(=O)c2c(Cl)cncc2Cl)cn1` [Example 103, 3,5-Dichloro-N-(5-(5-(5,5-dimethyl-4-oxo-4,5-dihydroisoxazol-3-yl)-2-methylphenyl)pyrazin-2-yl)isonicotinamide] in this work. An IC50 of 100 to 1000 nM was found for `Cc1ccc(C2=NOC(C)(C)C2=O)cc1-c1cnc(NC(=O)c2ccncc2F)cn1` [Example 107, N-(5-(5-(5,5-dimethyl-4-oxo-4,5-dihydroisoxazol-3-yl)-2-methylphenyl)pyrazin-2-yl)-3-fluoroisonicotinamide] in this work. An IC50 of 100 to 1000 nM was found for `Cc1ccc(C2=NOC(C)(C)C2=O)cc1-c1cnc(NC(=O)c2cccnc2C)cn1` [Example 113, N-(5-(5-(5,5-dimethyl-4-oxo-4,5-dihydroisoxazol-3-yl)-2-methylphenyl)pyrazin-2-yl)-2-methylnicotinamide] in this work. An IC50 of less than 100 nM was found for `Cc1ccc(C2=NOC(C)(C)C2=O)cc1-c1cnc(NC(=O)c2c(F)cncc2F)cn1` [Example 114, N-(5-(5-(5,5-dimethyl-4-oxo-4,5-dihydroisoxazol-3-yl)-2-methylphenyl)pyrazin-2-yl)-3,5-difluoroisonicotinamide] in this work. An IC50 of 100 to 1000 nM was found for `Cc1ccc(C2=NOC(C)(C)C2=O)cc1-c1cnc(C(=O)Nc2c(F)cccc2F)cn1` [Example 121, N-(2,6-Difluorophenyl)-5-(5-(5,5-dimethyl-4-oxo-4,5-dihydroisoxazol-3-yl)-2-methylphenyl)pyrazine-2-carboxamide] in this work. An IC50 of 100 to 1000 nM was found for `CC(C)Oc1ccc(C2=NOC(C)(C)C2=O)cc1-c1cnc(NC(=O)c2c(F)cccc2F)cn1` [Example 126, N-(5-(5-(5,5-dimethyl-4-oxo-4,5-dihydroisoxazol-3-yl)-2-isopropoxy-phenyl)pyrazin-2-yl)-2,6-difluorobenzamide] in this work.
